Results: patent US20080318970A1, “Treatment of Infectious Diseases” (priority 2004, published 2008)

Key:
[1] = test system: E. coli, LN 3164; test: MIC susceptibility test, microdilution broth method (NCCLS), chemosensitising compound alone; assay type: cell-based; details: 37° C., 16 h
Description: Bacteria were sub-cultured on Mueller-Hinton agar plates and incubated over night at 37° C. Pre-warmed Mueller-Hinton broth was inoculated with colonies from the plate and incubated for approximately three hours to achieve a log phase culture. The log phase culture of bacteria was diluted with fresh pre-warmed medium and adjusted to a defined Optical Density (OD) at 600 nm in order to give a final assay concentration of 1×10^4 bacteria/ml medium.
Cell growth was tested using the MIC susceptibility tests by use of the microdilution broth method in accordance to the NCCLS Guidelines (NCCLS Guidelines, Methods for Dilution Antimicrobial Susceptibility Tests for Bacteria That Grow Aerobically; Approved Standard, Sixth Edition, Volume 23; Number 2). A 100% Mueller-Hinton broth and a bacterial concentration of 1×10^4/ml were used.
A log phase culture of bacteria was diluted with fresh pre-warmed medium and adjusted to a defined OD at 600 nm in order to give a final concentration of 1×10^4 bacteria/ml medium in each well. Each chemosensitising compound was added to the bacterial culture in the wells in two-fold dilutions in order to give final concentrations ranging from 8 to 500 μg/ml. Trays were incubated at 37° C. for 16 h. Minimal Inhibitory Concentration, (MIC) is defined as the lowest inhibitory concentration showing no visible growth according to the NCCLS Guidelines.

[2] = test system: E. coli, LN 3164; test: Effect of chemosensitising compounds on DR (DR ratio) with ciprofloxacin, microtiter assay; assay type: cell-based; details: for DR ratio: MIC ciprofloxacin alone / MIC ciprofloxacin + chemosensitising compound at ¼ of its MIC
Description: The effects of the chemosensitising compounds on DR were studied by the microtiter assay described above by exposing cells to 0-64 μg/ml anti-infective drug in the absence or presence of chemosensitising compound. Each experiment was repeated in tripleduplicate. MIC values represent the mean values of two separate experiments.
A log phase culture of bacteria was diluted with fresh pre-warmed medium and adjusted to a defined OD at 600 nm in order to give a final concentration of 1×10^4 bacteria/ml medium in each well. […] Anti-infective agent was added to the bacterial culture in the wells in two-fold dilutions in order to give final concentrations ranging from 0 to 64 μg/ml. Trays were incubated at 37° C. for 16 h. The DR ratio was defined as the ratio between the MIC value for anti-infective agent alone divided by the MIC for the anti-infective agent in the presence of the chemosensitising compound. This ratio represents the increase in apparent potency of the anti-infective agent caused by the chemosensitising compound, and may be expressed as
DR ratio=(MICanti-infective agent)/(MICanti-infective agent+chemosensitising compound)

[3] = test system: P. aeruginosa 432b; test: Checkerboard combination study (FIC index); assay type: cell-based; details: isolate resistant (R)
Description: P. aeruginosa 432b. Clinical multidrug resistant isolate. Resistant to tetracycline, beta-lactams, fluoroquinolones, and aminoglycosides. Beta-lactamase producing, changes in Penicillin Binding Proteins and changes in Outer Membrane Proteins.
(§1) The synergistic effect was studied by checkerboard combination studies exposing cells to 0-64 μg/ml anti-infective agent in the absence or presence of trans-flupenthixol, cis-flupenthixol or trans-clopenthixol. Each experiment was repeated in tripleduplicate. MIC values represent the mean values of two separate experiments,
(§2) A log phase culture of bacteria was diluted with fresh pre-warmed medium and adjusted to a defined OD at 600 nm in order to give a final concentration of 1×10^4 bacteria/ml medium in each well. Each chemosensitising compound was added to the bacterial culture in the wells in two-fold dilutions in order to give final concentrations ranging from 0 to 8 μg/ml. Anti-infective agent was added to the bacterial culture in the wells in two-fold dilutions in order to give final concentrations ranging from 0 to 64 μg/ml Trays were incubated at 37° C. for 16 h. Wells were assessed visually for growth. The Fractional Inhibitory Concentration (FIC) was calculated for each anti-infective agent alone and in combination with trans-flupenthixol, cis-flupenthixol or trans-clopenthixol. The following formulae were used to calculate the FIC index:
(§3) FIC=FICchemosensitising compound+FICanti-infective agent
(§4) FICchemosensitising compound=(MICchemosensitising compound+anti-infective agent)/(MICchemosensitising compound)
(§5) FICanti-infective agent=(MICanti-infective agent+chemosensitising compound/(MICanti-Infective agent)
(§6) Synergy was defined as a FIC index of <0.5.

[4] = test system: E. coli 331ME; test: Checkerboard combination study (FIC index); assay type: cell-based; details: MDR isolate
Description: E. coli 331 ME. In vivo-selected multidrug resistant clinical isolates of E. coli. Strains were isolated from a patient with severe cystitis/urosepsis. Resistant to tetracycline, beta-lactams, fluoroquinolones, chloramphenicol and aminoglycosides.
as §1, §2, §3, §4, §5, §6

[5] = test system: E. faecalis F84; test: Checkerboard combination study (FIC index); assay type: cell-based, Enterococcus faecalis; details: for FIC index: MDR isolate
Description: Enterococcus faecalis, F84. A multidrug resistant clinical isolate.
as §1
as §2, with “Each chemosensitising compound was added to the bacterial culture in the wells in two-fold dilutions in order to give final concentrations ranging from 0 to 8 μg/ml.” left out
as §3, §4, §5, §6

[6] = test system: S. aureus O11; test: Checkerboard combination study (FIC index); assay type: cell-based, Staphylococcus aureus; details: anti-infective agent Dicloxacillin; isolate susceptible (S)
Description: Staphylococcus aureus O11. Clinical isolate resistant to penicillin. Susceptible to methicillin, tetracycline, beta-lactams, fluoroquinolones, chloramphenicol and aminoglycosides.
as §1, §2, §3, §4, §5, §6

[7] = clinical trial versus placebo, Johnstone et al.; cited from earlier work
[8] = test system: E. faecalis F86; test: Checkerboard combination study (FIC index); assay type: cell-based, Enterococcus faecalis; details: anti-infective agent Dicloxacillin; isolate susceptible (S)
Description: Enterococcus faecalis, F86. Susceptible clinical isolate. No development of resistance.
as §1, §2, §3, §4, §5, §6

[9] = test system: E. coli LN 3164; test: Checkerboard combination study (FIC index); assay type: cell-based; details: MDR isolate
Description: E. coli, LN 3164. Acr AB-ToIC MDR in vitro-selected mutant. Resistant to tetracycline, beta-lactams, fluoroquinolones, chloramphenicol and aminoglycosides.
as §1, §2, §3, §4, §5, §6

[10] = test system: S. aureus E45; test: Checkerboard combination study (FIC index); assay type: cell-based, Staphylococcus aureus; details: isolate resistant (R)
Description: Staphylococcus aureus E45 MRSA. Clinical isolate. Resistant to methicillin. Susceptible to teicoplanin chloramphenicol, fosfomycin, netilmicin and vancomycin.
as §1, §2, §3, §4, §5, §6

[11] = test system: non-resistant mouse pathogen isolate of Streptococcus pneumoniae; details: Kristiansen et al. 1998; cited from earlier work
[12] = anti-infective agent Ciprofloxacin
[13] = anti-infective agent Gentamicin
[14] = anti-infective agent Piperacillin
[15] = anti-infective agent Dicloxacillin
[16] = anti-infective agent Fucidic acid

CC(CN1c2ccccc2Sc2ccccc21)N(C)C (stereo not drawn) [Promethazine, promethazine]
MIC [1]: 64 µg/mL | DR ratio ([2]; E. coli LN 3164): 8

CSc1ccc2c(c1)N(CCCN(C)C)c1ccccc1S2 [Thiomethylpromazine, thiomethylpromazine]
MIC [1]: 32 µg/mL | DR ratio ([2]; E. coli LN 3164): 4

CN1CCN(CCCN2c3ccccc3Sc3ccc(C(F)(F)F)cc32)CC1 [Trifluoperazine, trifluoperazine]
MIC [1]: 16 µg/mL | DR ratio ([2]; E. coli LN 3164): 16

CN(C)CCCN1c2ccccc2Sc2ccc(C(F)(F)F)cc21 [Trifluopromazine, trifluopromazine]
MIC [1]: 32 µg/mL | DR ratio ([2]; E. coli LN 3164): 8

CN(C)CCCN1c2ccccc2[S+]([O-])c2ccc(Cl)cc21 (stereo not drawn) [chlorpromazine sulfoxide]
activity against drug resistance (in words) ([2]; E. coli LN 3164, ciprofloxacin): same activity against drug resistance as did chlorpromazine

CN(C)CCCN1c2ccccc2Sc2ccc(Cl)cc21 [chlorpromazine]
MIC [1]: 32 µg/mL | sensitised drug resistant cells to ciprofloxacin by ([2]; E. coli LN 3164, ciprofloxacin): 220% | DR ratio ([2]; E. coli LN 3164): 4 | increase in anti-DR activity, tertiary versus secondary amine ([2]; chlorpromazine versus desmethylchlorpromazine): 1.6 fold

OCCN1CCN(CC/C=C2/c3ccccc3Sc3ccc(C(F)(F)F)cc32)CC1 [cis-flupenthixol, reference compound]
FIC index [3, 12]: 0.06 | FIC index [3, 13]: 0.13 | FIC index [3, 14]: 0.25 | FIC index [4, 12]: 0.013 | FIC index [4, 13]: 0.06 | FIC index [4, 14]: 0.25 | FIC index [5, 15]: 0.13 | FIC index ([5]; anti-infective agent Vanomycin): 0.25 | FIC index [6]: 0.50 | anti-psychotic effect (in words) [7]: potent neuroleptic | MIC [1]: 32 µg/mL | DR ratio ([2]; E. coli LN 3164): 32 | FIC index [8]: 0.50 | FIC index [9, 12]: 0.25 | FIC index [9, 13]: 0.25 | FIC index [9, 14]: 0.25 | FIC index [10, 15]: 0.25 | FIC index [10, 16]: 0.26

OCCN1CCN(CC/C=C2\c3ccccc3Sc3ccc(C(F)(F)F)cc32)CC1 [trans-flupenthixol]
FIC index [3, 12]: 0.03 | FIC index [3, 13]: 0.06 | FIC index [3, 14]: 0.13 | FIC index [4, 12]: 0.006 | FIC index [4, 13]: 0.02 | FIC index [4, 14]: 0.13 | FIC index [5, 15]: 0.06 | FIC index ([5]; anti-infective agent Vanomycin): 0.13 | FIC index [6]: 0.50 | anti-psychotic effect (in words) [7]: no activity as an anti-psychotic | MIC [1]: 32 µg/mL | DR ratio ([2]; E. coli LN 3164): 64 | FIC index [8]: 0.50 | FIC index [9, 12]: 0.13 | FIC index [9, 13]: 0.063 | FIC index [9, 14]: 0.13 | FIC index [10, 15]: 0.13 | FIC index [10, 16]: 0.13

CN[C@H](CC(C)C)C(=O)N[C@H]1C(=O)N[C@@H](CC(N)=O)C(=O)N[C@H]2C(=O)N[C@H]3C(=O)N[C@H](C(=O)N[C@H](C(=O)O)c4cc(O)cc(O)c4-c4cc3ccc4O)[C@H](O)c3ccc(c(Cl)c3)Oc3cc2cc(c3O[C@@H]2O[C@H](CO)[C@@H](O)[C@H](O)[C@H]2O[C@H]2C[C@](C)(N)[C@H](O)[C@H](C)O2)Oc2ccc(cc2Cl)[C@H]1O [vancomycin, reference compound]
MIC value ([5]; E. faecalis F84 cultivated in the presence of vancomycin at 4 μg/ml): 4 μ/ml

penicillin
MIC [11]: 0.02 µg/mL
